Test results from publication PMC5462475, “A conformational switch high-throughput screening assay and allosteric inhibition of the flavivirus NS2B-NS3 protease” (PLoS Pathogens, 2017).
pEC50, pIC50: −log10 of the molar value. Entries after “also recorded” stand apart in the source; their conditions may differ. Like-named read-outs stand apart in the source and are kept apart here.

What was measured:
ZIKV [1] = assay: microbe, parasite or virus in culture; assay type: cell-based; conditions: HPECs, MOI 2
[2] = biological target: T1, DENV2 NS2B-CLuc-NS3-119-NLuc-NS3 120-to-NS3_C (N2CN3N) (UniProt P08659+P14340); assay type: biochemical
T1 construct: pairs of primers of 1394F and 1440C for NS2B and 1476F and 1660C for NS3; made in house; host or cells: Escherichia coli Rosetta 2(DE3)

[3] = biological target: T2, DENV2 NS2B-NS3 N152A mutant (Dengue virus type 2, UniProt P14340, N1627A); assay type: biochemical; conditions: compound 6 μM, protein 150 nM, vs DMSO
[4] = tested on: ZIKV NS3 / polyprotein precursor; assay: Western blot of ZIKV NS3 expression and polyprotein processing in infected A549 cells
[5] = biological target: T3, DENV2 NS2B-NS3 I123A mutant (Dengue virus type 2, UniProt P14340, I1598A); assay type: binding
[6] = biological target: T4, unlinked ZIKV NS2B/NS3 protease (Zika virus, UniProt A0A024B7W1); assay: ZIKV unlinked NS2B/NS3 protease inhibition assay; assay type: biochemical; conditions: protease 150 nM
T4 construct: The construct contains the NS2B residues 49–95 and the NS3 residues 1–185; made in house; host or cells: E. coli (Rosetta 2(DE3))
Text: As flavivirus NS3 is highly conserved (Fig 3C), it is possible that the inhibitors identified are broad spectrum flavivirus inhibitors. We therefore investigated whether NSC135618 is effective against other flaviviruses. Because ZIKV treatment currently has the most urgent need, we evaluated the efficacy of the compound on ZIKV. To this end, we first constructed an unlinked NS2B/NS3 heterocomplex of ZIKV in the pET28a vector by engineering a 3C protease cleavage site within the GGGSGGGG linker region between NS2B and NS3. The NS2B/NS3 protease was first expressed as a His-tagged covalently linked single chain protein in E coli. The unlinked ZIKV NS2B/NS3 protease complex was generated by on-column digestion with thrombin and 3C proteases, followed by gel filtration chromatography.
Fig 7 Inhibition of the ZIKV protease activity, viral titer, protein expression, and viral RNA replication by NSC135618. […] ST, molecular weight (MW) standard. (B) Dose response inhibition of the unlinked ZIKV NS2B-NS3 protease by NSC135618. The NS2b/NS3 protease was at 150 nM. N = 3. (C) Dose-dependent inhibition of ZIKV by NSC135618 in A549 cells. Viral plaque reduction assay was used. N = 3. (D) Immunofluorescence assay (IFA) of inhibition of viral protein expression for ZIKV-infected A549 cells by NSC135618, using pan flavivirus anti-E antibody 4G2. […]

[7] = biological target: T2, DENV2 NS2B-NS3 N152A mutant; assay type: binding
DENV2 [8] = tested on: DENV2
ZIKV [9] = assay: microbe, parasite or virus in culture; assay type: cell-based; conditions: hNPCs, MOI 2
[10] = biological target: T5, DENV2 NS2B-NS3 K74A mutant (Dengue virus type 2, UniProt P14340, K1549A); assay type: binding
[11] = biological target: T6, DENV2 NS2B-NS3 V154A mutant (Dengue virus type 2, UniProt P14340, V1629A); assay type: binding
[12] = biological target: T6, DENV2 NS2B-NS3 V154A mutant; assay type: biochemical; conditions: compound 6 μM, protein 150 nM, vs DMSO
WNV [13] = assay: microbe, parasite or virus in culture; conditions: West Nile virus, A549, 48 h, read-out: EC50, WNV viral reduction
YFV [14] = assay: microbe, parasite or virus in culture; conditions: Yellow fever virus, A549, 48 h, read-out: EC50, YFV viral reduction
WNV [15] = tested on: WNV
[16] = biological target: T5, DENV2 NS2B-NS3 K74A mutant; assay type: biochemical; conditions: compound 6 μM, protein 150 nM, vs DMSO
in vitro = conditions: human
unlinked DENV2 NS2B/NS3 = biological target: T7, unlinked DENV2 NS2B/NS3 (Dengue virus type 2, UniProt P14340); assay: Protein thermal shift assay (PTSA), unlinked DENV2 NS2B/NS3; assay type: binding; conditions: unlinked NS2B/NS3 2.5 μM, compound 4.8 μM
T7 construct: pairs of primers of 1394F and 1440C for NS2B and 1476F and 1660C for NS3; made in house; host or cells: Escherichia coli Rosetta 2(DE3)
Text: N = 3. […] N = 3. […] PP, ZIKV polyprotein precursor. **, p<0.05.

DENV2 [17] = assay: microbe, parasite or virus in culture; conditions: Dengue virus, A549, 48 h, read-out: EC50, DENV2 viral reduction
YFV [18] = tested on: YFV
ZIKV [19] = assay: microbe, parasite or virus in culture; conditions: Zika virus, A549, 48 h, read-out: EC50, ZIKV viral reduction
[20] = biological target: T3, DENV2 NS2B-NS3 I123A mutant; assay type: biochemical; conditions: compound 6 μM, protein 150 nM, vs DMSO
ZIKV [21] = conditions: A549 cells
[22] = protein 2.5 μM, compound 4.8 μM

T1 sequence (P08659 whole entry, looked up, other chains not shown): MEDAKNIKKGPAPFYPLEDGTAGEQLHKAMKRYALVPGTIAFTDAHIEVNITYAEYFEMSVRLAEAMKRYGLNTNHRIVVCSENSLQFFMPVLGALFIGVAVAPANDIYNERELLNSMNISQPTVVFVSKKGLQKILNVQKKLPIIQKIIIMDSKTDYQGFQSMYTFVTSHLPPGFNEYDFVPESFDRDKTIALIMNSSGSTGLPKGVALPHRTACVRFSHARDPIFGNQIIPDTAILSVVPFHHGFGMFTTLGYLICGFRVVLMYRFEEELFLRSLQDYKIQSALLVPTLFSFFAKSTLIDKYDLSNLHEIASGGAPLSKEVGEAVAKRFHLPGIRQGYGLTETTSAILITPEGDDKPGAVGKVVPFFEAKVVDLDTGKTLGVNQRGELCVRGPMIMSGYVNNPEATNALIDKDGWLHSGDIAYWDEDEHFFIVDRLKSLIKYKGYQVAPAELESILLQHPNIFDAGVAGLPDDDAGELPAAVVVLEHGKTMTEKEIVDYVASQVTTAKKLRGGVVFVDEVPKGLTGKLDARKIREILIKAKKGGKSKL

## O=C1C=CC(=NNc2ccc([N+](=O)[O-])cc2Cl)C=C1C(=O)Nc1cccc(Cl)c1 [NSC135618]
ZIKV [1]
  ZIKV RNA replication (qRT-PCR): drastically decreased ZIKV RNA replication
  ZIKV protein expression (IFA): drastically decreased
  inhibition of ZIKV (titer): effectively inhibited ZIKV in HPECs in a dose-dependent manner
ZIKV [1]; Zika virus, Epithelial cell, read-out: EC50, ZIKV inhibition in HPECs
  pEC50: 6.00
[2]; compound 40 μM, NPGB 30 μM, N2CN3N 150 nM
  suppression of NPGB-induced SLC enhancement: abolish the SLC enhancement induced by NPGB to the background level
[2]; compound 40 μM, no NPGB, compared to DMSO
  effect of compound alone on background SLC: did not have significant effect on background SLC
[2]; serial dilution of compound, NPGB 30 μM
  inhibition of NPGB-induced SLC enhancement, concentration series: significantly suppressed the SLC enhancement; also recorded: clearly inhibited the NPGB-induced SLC enhancement in a dose dependent manner
[3]
  inhibition of protease activity of N152A mutant: completely abolished the inhibition activity
[4]; 0.19 μM to 3 μM
  unprocessed viral polyprotein precursor (high MW band, Western blot): accumulation of high molecular weight (MW) protein
[4]; 0.75 μM to 6 μM, 48 h
  ZIKV NS3 expression (Western blot, normalized to GAPDH): significant inhibition of ZIKV NS3 expression
[4]; 6 μM
  viral protein expression (Western blot): nearly completely suppressed viral protein expression
[5]; Fig 10D
  Tm (I123A): 44.34 °C
[5]; [22]
  ΔTm (I123A): 2.69 °C
[6]
  pIC50: 6.42
[7]; Fig 10D
  Tm (N152A): 53.63 °C
[7]; [22]
  ΔTm (N152A): 0.55 °C
DENV2 [8]; A549 cells
  DENV2 viral RNA copy numbers (qRT-PCR): greatly reduced viral RNA copy numbers in a dose dependent manner
DENV2 [8]; A549 cells, MOI 0.1, 48 h
  EC50, DENV2 viral reduction: low micromolar range
DENV2 [8]; A549 cells, compound at 1, 10 and 100 μM, 48 h post-infection
  DENV2 viral production (titer) relative to DMSO control: significantly reduced
DENV2 [8]; DENV2, A549 cells
  TI (therapeutic index, CC50/EC50): 60
ZIKV [9]; Zika virus, read-out: EC50, ZIKV inhibition in hNPCs
  pEC50: 5.72
ZIKV [9]
  ZIKV RNA replication (qRT-PCR): considerably reduce
  ZIKV protein expression (IFA): considerably reduce
  reduction of ZIKV titers: considerably reduce ZIKV titers
[10]; Fig 10D
  Tm (K74A): 42.19 °C
[10]; [22]
  ΔTm (K74A): 2.48 °C
[11]; Fig 10D
  Tm (V154A): 52.09 °C
[11]; [22]
  ΔTm (V154A): 1.75 °C
[12]
  inhibition of protease activity of V154A mutant: slightly reduced the inhibition activity
WNV [13]
  pEC50: 5.90
YFV [14]
  pEC50: 6.55
WNV [15]
  TI (therapeutic index, CC50/EC50): 38
WNV [15]; A549 cells, MOI 0.1, 48 h
  EC50, WNV viral reduction: low micromolar range
[16]
  inhibition of protease activity of K74A mutant: retains its inhibition activity
In vitro
  CC50: 48.8 µM
Unlinked DENV2 NS2B/NS3
  increase of melting temperature (ΔTm) vs DMSO: 4.8 °C
DENV2 [17]
  pEC50: 6.09
YFV [18]
  EC50, YFV viral reduction: low micromolar range
  TI (therapeutic index, CC50/EC50): 174
ZIKV [19]
  pEC50: 6.00
[20]
  inhibition of protease activity of I123A mutant: retains its inhibition activity
ZIKV [21]
  ZIKV viral protein expression (IFA, anti-E antibody 4G2): greatly reduced viral protein expression
ZIKV [21]; MOI 0.1, 48 h
  EC50, ZIKV viral reduction: low micromolar range
ZIKV [21]; supernatant
  ZIKV viral RNA copy numbers (qRT-PCR): greatly reduced
ZIKV [21]; ZIKV
  TI (therapeutic index, CC50/EC50): 49
